From patent publication US5321037A, “Isoxazole derivatives for use as cerebro-active drugs and central muscle relaxants” (Sankyo Company, Limited, priority 1986, dated 1994)
Structures can show the parent of a compound that is named as a salt. Where two headings read alike, the source gives them in different places.

Assays:
[1] = tested on: decerebrate rigidity in rats; experiment: Suppression of decerebrate rigidity in rats; format: in vivo, rat
Text: The suppression of decerebrate rigidity in laboratory animals, such as rats, is a well known model for control of human spasticity and/or rigidity.
In the test method, a rat was anesthetized with halothane and fixed on a stereotaxic apparatus (SR-5, Narishige). In accordance with the brain atlas by Pellegrino et al., [L. J. Pellegrino, A. S. Pellegrino & A. J. Cushman: A Stereotaxic Atlas of the Rat Brain, Plenum Press, New York and London (1967)], an electrode 0.7 mm in diameter, which was insulated except for 1 mm at the tip, was inserted bilaterally into the midbrain reticular formation (AP: 0, L: ±1.5, H: -3.0). A clip serving as the reference electrode was fixed on the temporal muscle. Through these electrodes, a high frequency electric current (100 KHz, 10 to 20 mA) was applied from a lesion generator (Glass Co., LM4A) for 2 to 3 minutes to cauterize electrically this brain region.
The rat was then immediately set free from the stereotaxic apparatus. A polyethylene cannula was inserted into the duodenum and fixed with an acrylic resin (Aron Alfa, Sankyo Co., Ltd.). After completion of these operations, halothane anesthesia was immediately discontinued.
After 1.5 hours, when the animal awoke from the anesthesia, the rat was fixed on an apparatus devised in our laboratory for a hind leg fixation. Both hind legs were fixed at the anterior part of the ankle joints. Both hindlimb paws were then pushed in 4 mm for 6 seconds in every minute. The resulting repulsive tension was drawn on a polygraph through a strain gauge.
The test compounds were suspended in a 0.5% w/v CMC (carboxymethyl cellulose) aqueous solution and were administered orally (p.o.) or intraperitoneally (i.p.).
The results are summarized in the following Table 7, where the compounds of the present invention are identified by the number of the foregoing Example in which each was prepared, Compound X is the known compound eperisone hydrochloride, and Compound Y is the known compound afloqualone.

[2] = tested on: thiopental anesthesia; experiment: Potentiation of thiopental anesthesia (mice); format: in vivo, mouse (ddY strain); settings: for Anesthesia time: thiopental 30 mg/kg after one hour
Experimental: In the test method, male adult mice of ddY strain each weighing 20 to 30 g were used as divided groups each made up of 5 to 7 mice. Test compounds suspended in 0.5% CMC solution were orally administered. After one hour, thiopental (30 mg/kg) was injected into the tail vein, and the time required for the mouse to recover the righting reflex was measured.

[3] = tested on: decerebrate rigidity (cats); experiment: Suppression of decerebrate rigidity (cats); format: in vivo, cat
Text: Adult cats each weight 3.0 to 4.5 kg were used. Under ether anesthesia, the trachea was cannulated and the common carotid arteries were ligated at both sides. The cat was decerebrated by suction at the precollicular level. Ether anesthesia was then immediately discontinued. A pair of needle electrodes was inserted into the neck muscle in order to pick up any EMG muscular discharges. The EMG discharge was amplified and recorded on a pen-writing recorder, along with an integration of the EMG discharge. Recording was started at least 2 hours after withdrawal of anesthesia. Blood pressure induced from the femoral artery, as well as body temperature and heart beat, were recorded and monitored throughout the experiment.
After stable EMG discharges were obtained, the test compounds suspended in 0.5% CMC solution were administered into the duodenum through a previously inserted cannula. The effect of the test compound was expressed as the ratio of the integrated EMG discharge after administration relative to the value before administration.

[4] = tested on: spinal reflex in cats; experiment: Effect on spinal reflex in cats; format: in vivo, cat; settings: for Mechanism shown by spinal reflexes: in vivo
Experimental: Adult cats weighing 3.0 to 4.5 kg each were used. After induction of anesthesia with ether, the animal was anesthetized by intravenous injection of 50 mg/kg of a-chloralose. After the trachea was cannulated, the animal was fixed on a stereotaxic apparatus, and the lumbosacral spinal cord was exposed by laminectomy from L3 to S1. The ventral roots of the right side were cut from L6 to S1 as distal as possible and the cut ends were ligated with cotton thread previously immersed in Ringer's solution. The exposed spinal cord was covered with warmed mineral oil and maintained at 37° C. The ventral root, either L7 or S1, was fixed on a pair of platinum wire electrodes. A pair of collar-type electrodes was implanted on the ipsilateral tibial nerve and the saphenous nerve, for stimulation. After completion of all these operations, the cat was immobilized with pancronium bromide (0.5 mg/kg, i.v.) and maintained by artificial respiration (40/minute). Recording was started at least 2 hours after withdrawal of ether anesthesia. A single square pulse (0.01 to 0.1 msecond pulse width, supramaximal intensity) was applied to the nerve at a frequency of 0.3 Hz from an electronic stimulator. […] In a similar manner to Experiment 2, the blood pressure, heart beat and body temperature of the animal were recorded and monitored. Compounds to be tested were also administered in a similar manner.

[5] = tested on: ischemia-induced neurological symptoms in SHR SP; experiment: Improvement in ischemia-induced neurological symptoms in Spontaneously Hypertensive Rats Stroke Prone (SHR SP) caused by ligation of the bilateral common carotid arteries; format: in vivo, rat (SHR SP); settings: 100 mg/kg
Experimental: The test animals employed were male adult SHR SPs (13 or 15 weeks old). They were used in groups each consisting of about 10 animals. Under halothane anesthesia, both common carotid arteries of each animal were ligated to prepare a brain ischemia model. The halothane anesthesia was stopped immediately after the ligation, and then the time taken to recover the righting reflex, the onset time of convulsions and the survival time were determined. The test solution was prepared in the same manner as described in Experiment 1 and was administered to the animal intraperitoneally 30 minutes before the ligation. A 0.5% CMC solution was administered to the control group in the same manner. The statistical analysis was carried out in a similar manner to that in Experiment 1. The statistical analysis of the survival rate was carried out by the X^2 test.

[6] = Rattus norvegicus, ip, 50 mg/kg i.p., read-out: Maximum inhibition
[7] = Rattus norvegicus, po, 30 mg/kg p.o., read-out: Maximum inhibition
[8] = Rattus norvegicus, po, 50 mg/kg p.o., read-out: Maximum inhibition
[9] = Rattus norvegicus, po, 100 mg/kg p.o., read-out: Maximum inhibition
[10] = 100 mg/kg, administered as in Experiment 2
[11] = 100 mg/kg, after administration
[12] = Rattus norvegicus, po, read-out: Maximum inhibition

O=c1c(Cl)c(-c2ccccc2)on1CC(O)CN1CCOCC1 (centres unmarked) [Compound 2a]
Duration of the effect ([1]; 30 mg/kg p.o.): > 90 min | Onset of the effect ([1]; 30 mg/kg p.o.): 5 min | Duration of the effect ([1]; 50 mg/kg i.p.): > 120 min | Onset of the effect ([1]; 50 mg/kg i.p.): 10 min | Duration of the effect ([1]; 50 mg/kg p.o.): > 90 min | Onset of the effect ([1]; 50 mg/kg p.o.): 5 min | Duration of the effect ([1]; 100 mg/kg p.o.): > 90 min | Onset of the effect ([1]; 100 mg/kg p.o.): 5 min | inhibition in vivo at 50 mg/kg [1, 6]: 50% | inhibition in vivo at 30 mg/kg [1, 7]: 55% | inhibition in vivo at 50 mg/kg [1, 8]: 90% | inhibition in vivo at 100 mg/kg [1, 9]: 100% | Anesthesia time ([2]; 100 mg/kg p.o.): 329.1 ± 81.2 s | Drowsiness (the adverse effect), implied ([2]; compared with afloqualone): induce drowsiness (the adverse effect) less than afloqualone | Prolongation of the duration of thiopental-induced anesthesia, in words ([2]; in comparison with eperisone hydrochloride): did not significantly prolong the duration of thiopental-induced anesthesia | Inhibition of decerebrate rigidity ([3]; 100 mg/kg intraduodenal, 5 minutes after administration): About 30% | Inhibition of decerebrate rigidity ([3]; 100 mg/kg intraduodenal, 1 hour after administration): about 65% | Duration of inhibitory effects ([3]; 100 mg/kg intraduodenal, throughout the observation period): ≥ 2 h | Side effects and duration of action compared with eperisone hydrochloride ([3]; compared with eperisone hydrochloride): weaker in side effects and of longer action than eperisone hydrochloride | Duration of the effect on spinal reflexes ([4]; 100 mg/kg): about 2 hours | Monosynaptic reflex [4, 10]: little affected | Polysynaptic reflex [4, 10]: remarkably inhibited | Spino-bulbo-spinal reflex [4, 10]: remarkably inhibited | Onset of the effect on spinal reflexes [4, 11]: 5 min | Time of maximum effect on spinal reflexes [4, 11]: 30 min | Mechanism shown by spinal reflexes [4]: interneuron blockers | Onset time of convulsions and survival time, in words [5]: prolonged onset time of convulsions, survival time significantly

Cc1cc(=O)n(CC(O)CN2CCOCC2)o1 (centres unmarked) [Compound 3a]
Duration of the effect ([1]; 50 mg/kg i.p.): 50 min | Onset of the effect ([1]; 50 mg/kg i.p.): 5 min | inhibition in vivo at 50 mg/kg [1, 6]: 30%

O=c1cc(-c2ccc(Cl)cc2)on1CC(O)CN1CCOCC1 (centres unmarked) [Compound 4a]
Duration of the effect ([1]; 50 mg/kg i.p.): > 120 min | Onset of the effect ([1]; 50 mg/kg i.p.): 5 min | inhibition in vivo at 50 mg/kg [1, 6]: 80%

CC(C)NCC(O)Cn1oc(-c2ccccc2)c(Cl)c1=O (centres unmarked) [Compound 5a]
Duration of the effect ([1]; 50 mg/kg i.p.): > 120 min | Onset of the effect ([1]; 50 mg/kg i.p.): 5 min | inhibition in vivo at 50 mg/kg [1, 6]: 95%

CC(C)NCC(O)Cn1oc(-c2ccccc2)cc1=O (centres unmarked) [Compound 6a]
Duration of the effect ([1]; 50 mg/kg i.p.): 60 min | Onset of the effect ([1]; 50 mg/kg i.p.): 5 min | inhibition in vivo at 50 mg/kg [1, 6]: 30%

CC(C)NCC(O)Cn1oc(-c2ccc(Cl)cc2)cc1=O (centres unmarked) [Compound 7a]
Duration of the effect ([1]; 50 mg/kg i.p.): 60 min | Onset of the effect ([1]; 50 mg/kg i.p.): 5 min | inhibition in vivo at 50 mg/kg [1, 6]: 75%

CCc1ccc(C(=O)C(C)CN2CCCCC2)cc1 (centres unmarked) [Compound X, eperisone hydrochloride, reference compound]
Duration of the effect ([1]; 10 mg/kg p.o.): > 30 min | Onset of the effect ([1]; 10 mg/kg p.o.): 10 min | Duration of the effect ([1]; 30 mg/kg p.o.): 45 min | Onset of the effect ([1]; 30 mg/kg p.o.): 10 min | Duration of the effect ([1]; 50 mg/kg p.o.): 30 min | Onset of the effect ([1]; 50 mg/kg p.o.): 10 min | Duration of the effect ([1]; 100 mg/kg p.o.): 60 min | Onset of the effect ([1]; 100 mg/kg p.o.): 5 min | inhibition in vivo at 10 mg/kg ([1]; Rattus norvegicus, po, 10 mg/kg p.o., read-out: Maximum inhibition): 30% | inhibition in vivo at 30 mg/kg [1, 7]: 30% | inhibition in vivo at 50 mg/kg [1, 8]: 50% | inhibition in vivo at 100 mg/kg [1, 9]: 50% | Anesthesia time ([2]; 10 mg/kg p.o.): 182.0 ± 9.8 s | Anesthesia time ([2]; 30 mg/kg p.o.): 192.0 ± 18.3 s | Anesthesia time ([2]; 100 mg/kg p.o.): 247.0 ± 34.9 s | Inhibition of decerebrate rigidity, in words ([3]; 50 mg/kg intraduodenal): decerebrate rigidity was inhibited | Side effects (vomiting, changes in blood pressure and heart beat) ([3]; 50 mg/kg intraduodenal): induced vomiting immediately after administration accompanied with abrupt changes in blood pressure and heart beat | Time after administration at which decerebrate rigidity returned ([3]; 50 mg/kg intraduodenal): 30 min

Cc1ccccc1-n1c(CF)nc2ccc(N)cc2c1=O [Compound Y, afloqualone, reference compound]
Duration of the effect ([1]; 5 mg/kg p.o.): 60 min | Onset of the effect ([1]; 5 mg/kg p.o.): 10 min | Duration of the effect ([1]; 10 mg/kg p.o.): 45 min | Onset of the effect ([1]; 10 mg/kg p.o.): 10 min | Duration of the effect ([1]; 30 mg/kg p.o.): 120 min | Onset of the effect ([1]; 30 mg/kg p.o.): 10 min | inhibition in vivo at 5 mg/kg [1, 12]: 25% | inhibition in vivo at 10 mg/kg [1, 12]: 55% | inhibition in vivo at 30 mg/kg [1, 12]: 70% | Anesthesia time ([2]; 10 mg/kg p.o.): 242.0 ± 10.0 s | Prolongation of the duration of anesthesia, in words ([2]; 30 mg/kg): did significantly prolong the duration of anesthesia | Anesthesia time ([2]; 30 mg/kg p.o.): 4657.0 ± 636.6 s

Cc1c(-c2ccccc2)on(CC(O)CN2CCOCC2)c1=O.Cl (centres unmarked) [Example 2, 2-(2-Hydroxy-3-morpholinopropyl)-4-methyl-5-phenyl-3-isoxazolone hydrochloride]
Duration of the effect ([1]; 100 mg/kg i.p.): > 90 min | Onset of the effect ([1]; 100 mg/kg i.p.): 5 min | inhibition in vivo at 100 mg/kg ([1]; Rattus norvegicus, ip, 100 mg/kg i.p., read-out: Maximum inhibition): 60%

Cc1c(OCC(O)CN2CCOCC2)noc1-c1ccccc1 (centres unmarked) [Example 5, 3-(2-Hydroxy-3-morpholinopropoxy)-4-methyl-5-phenylisoxazole]
Duration of the effect ([1]; 100 mg/kg p.o.): > 90 min | Onset of the effect ([1]; 100 mg/kg p.o.): 5 min | inhibition in vivo at 100 mg/kg [1, 9]: 70%

NC(=O)OCC(O)Cn1oc2ccc(Cl)cc2c1=O (centres unmarked) [Example 15, 2-(3-Carbamoyloxy-2-hydroxypropyl)-5-chloro-1,2-benzisoxazol-3-one]
Duration of the effect ([1]; 50 mg/kg i.p.): > 60 min | Onset of the effect ([1]; 50 mg/kg i.p.): 5 min | inhibition in vivo at 50 mg/kg [1, 6]: 50%

NC(=O)OCC(O)COc1ccc(Cl)cc1 (centres unmarked) [chlorphenesin carbamate, reference compound]
Effect on spinal reflexes, compared with Compounds 1a and 2a ([4]; 100 mg/kg): A similar effect was observed | Mechanism shown by spinal reflexes [4]: interneuron blockers
